Patent US10538497B2, “Compounds as indoleamine 2,3-dioxygenase inhibitors” (Merck Sharp & Dohme Corp., priority 2015, dated 2020)

How the values were obtained:
[1] = target: T1, IDO1 (Homo sapiens (Human), UniProt P14902); test: IDO1 In Vivo Assay (hIDO1-CT26 murine model); set-up: species or system mouse; settings: oral administration, 100 and 300 mg/kg
Procedure: hIDO1-CT26, a murine cell line generated in house to constitutively express the human IDO1 protein, was cultured in RPMI-1640+10% FBS+500 μM L-tryptophan in a standard cell incubator (37° C., 5% CO2). At 80% confluency, cells are rinsed in TrypLE, then incubated with TrypLE until fully detached (usually 1-5 min), resuspended in complete media, spun down (1000 rpm, 4° C., 5 min), and resuspended in phenol red-free RPMI-1640 before counting.
Two millions hIDO1-CT26 cells (20×10E6 cells/ml) in 50% phenol red-free RPMI-1640/50% Matrigel (growth factor reduced, GFR) are implanted subcutaneously in the right flank of anesthetized immunocompromised animals (CD-1 Nu/Nu, Charles River Labs). Ten days following implantation, tumors reach an average volume of 180 mm^3 at which point animals are randomized into treatment groups.
Animals are treated with IDO1 inhibitors by oral gavage (PO) every 12 h (BID dosing). Based on experimental design, animals will receive a minimum of 1 dose. At various times following the last dose, animals will be euthanized (CO2 asphyxiation), blood will be collected via cardiac puncture for plasma, and tumors will be resected. For plasma preparation, whole blood is transferred to plasma tube, and stored on ice prior to centrifugation. […]

[2] = target: T1, IDO1; test: IDO1 Cellular Assay in Hela Cells Stimulated with IFNγ; type: cell-based; settings: Hela cells stimulated with IFNγ 100 ng/mL; read-out: IDO1 HELA Cell Assay, IC50

T1 sequence (P14902 whole entry): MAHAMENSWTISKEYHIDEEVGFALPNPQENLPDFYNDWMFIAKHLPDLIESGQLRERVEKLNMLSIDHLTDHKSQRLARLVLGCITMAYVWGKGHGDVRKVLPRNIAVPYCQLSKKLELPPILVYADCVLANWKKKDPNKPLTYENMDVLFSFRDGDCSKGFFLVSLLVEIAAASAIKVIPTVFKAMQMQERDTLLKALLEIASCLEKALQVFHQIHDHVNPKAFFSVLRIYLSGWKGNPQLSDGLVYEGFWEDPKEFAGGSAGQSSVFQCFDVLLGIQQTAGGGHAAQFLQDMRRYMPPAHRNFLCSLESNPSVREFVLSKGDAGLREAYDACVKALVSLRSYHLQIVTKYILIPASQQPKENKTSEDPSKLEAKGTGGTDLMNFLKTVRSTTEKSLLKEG

Structure (SMILES) | kynurenine levels in both plasma and tumor [1] | IC50 [2] [nM]
O=C(CSc1nonc1/C(=N/O)Nc1ccc(F)c(Br)c1)NC[C@@H](O)CO [Example 42, (R)-2-((4-(N-(3-bromo-4-fluorophenyl)-N′-hydroxycarbamimidoyl)-1,2,5-oxadiazol-3-yl)thio)-N-(2,3-dihydroxypropyl)acetamide] | dose-dependent reduction | 34.3
NC(=O)NCCSc1nonc1/C(=N/O)Nc1ccc(F)c(Br)c1 [Example 46, N-(3-Bromo-4-fluorophenyl)-N′-hydroxy-4-((2-ureidoethyl)thio)-1,2,5-oxadiazole-3-carboximidamide] | dose-dependent reduction | 13.5
